According to US7635664B2, “Herbicidal substituted benzoylpyrazoles” (Bayer CropScience AG, priority 2001, dated 2009):

What was measured:
[1] = logP determination by HPLC on reversed-phase column, acidic range; type: physicochemical; details: for logP: marked a): acidic range, 0.1% aqueous phosphoric acid/acetonitrile gradient, reversed-phase C 18 HPLC, 43° C.
Text: (a) Mobile phases for the determination in the acidic range: 0.1% aqueous phosphoric acid, acetonitrile; linear gradient from 10% acetonitrile to 90% acetonitrile—the corresponding measurement results in Table 1 are marked ^a).

weeds [2] = test: Pre-emergence test (Example A), weeds; type: in vivo; details: soil sprayed 24 hours after sowing; rated after three weeks as % damage vs untreated control
Method: (§1) To produce a suitable preparation of active compound, 1 part by weight of active compound is mixed with the stated amount of solvent, the stated amount of emulsifier is added and the concentrate is diluted with water to the desired concentration.
Seeds of the test plants are sown in normal soil. After 24 hours, the soil is sprayed with the preparation of active compound such that the particular amount of active compound desired is applied per unit area. The concentration of active compound in the spray liquor is chosen such that the particular amount of active compound desired is applied in 1000 liters of water per hectare.
After three weeks, the degree of damage to the plants is rated in % damage in comparison to the development of the untreated control. The figures denote: • 0%=no effect (like untreated control) • 100%=total destruction

weeds [3] = test: Post-emergence test (Example B), weeds; type: in vivo; details: test plants of a height of 5-15 cm sprayed; rated after three weeks as % damage vs untreated control
Method: as §1
Test plants of a height of 5-15 cm are sprayed with the preparation of active compound such that the particular amounts of active compound desired are applied per unit area. The concentration of the spray liquor is chosen such that the particular amounts of active compound desired are applied in 1000 l of water/ha.
After three weeks, the degree of damage to the plants is rated in % damage in comparison to the development of the untreated control.
The figures denote: • 0%=no effect (like untreated control) • 100%=total destruction

logP [1]	chromatographic logP ([1]; reversed-phase C18 HPLC column, pH=2.3)	Compound	activity against weeds, pre-emergence (weeds [2])	activity against weeds, post-emergence (weeds [3])
(I-2) logP = 1,39^a)		CCn1ncc(C(=O)c2ccc(Cl)c(NC(=O)N(C)OC)c2Cl)c1O [Example 2]	strong activity	strong activity
	1.58	CCn1ncc(C(=O)c2ccc(Cl)c(NC(=O)N3CCN(C)C3=O)c2Cl)c1O [Example 1, N-[2,6-dichloro-3-[(1-ethyl-5-hydroxy-1H-pyrazol-4-yl)-carbonyl]-phenyl]-3-methyl-2-oxo-1-imidazolidinecarboxamide]	strong activity	strong activity
(I-2) logP = 1.83^a)		CCn1ncc(C(=O)c2ccc(Cl)c(NC(=O)N3CCCN(C)C3=O)c2Cl)c1O [Example 5]	strong activity	strong activity
